# According to ChEMBL document CHEMBL1201862, “PubChem BioAssay data set” (2004):
#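 Test compounds were applied to cells in 96-well plates for 48 hours at 5 doses. GI50 is the concentration that inhibits growth by half.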 Activity calls are given as the source filed them. Cut-off read from the data, not from the text of the source: active = GI50 up to about 1.1 µM and inactive = higher.
# Assays:
# Assay in all cases: NCI-60 cell line screen, 48 h
# 786-0 = system: 786-0
# A498 = system: A498
# A549 = system: A549
# ACHN = system: ACHN
# BT-549 = system: BT-549
# CAKI-1 = system: CAKI-1
# CCRF-CEM = system: CCRF-CEM
# COLO 205 = system: COLO 205
# DU-145 = system: DU-145
# EKVX = system: EKVX
# HCC 2998 = system: HCC 2998
# HCT-116 = system: HCT-116
# HCT-15 = system: HCT-15
# HL-60 = system: HL-60
# HOP-62 = system: HOP-62
# HOP-92 = system: HOP-92
# HT-29 = system: HT-29
# Hs-578T = system: Hs-578T
# IGROV-1 = system: IGROV-1
# K562 = system: K562
# KM12 = system: KM12
# LOX IMVI = system: LOX IMVI
# M14 = system: M14
# MCF7 = system: MCF7
# MDA-MB-231 = system: MDA-MB-231
# MDA-MB-435 = system: MDA-MB-435
# MDA-N = system: MDA-N
# MOLT-4 = system: MOLT-4
# NCI-H226 = system: NCI-H226
# NCI-H23 = system: NCI-H23
# NCI-H460 = system: NCI-H460
# NCI-H522 = system: NCI-H522
# NCI/ADR-RES = system: NCI/ADR-RES
# OVCAR-3 = system: OVCAR-3
# OVCAR-4 = system: OVCAR-4
# OVCAR-5 = system: OVCAR-5
# OVCAR-8 = system: OVCAR-8
# PC-3 = system: PC-3
# RPMI-8226 = system: RPMI-8226
# RXF 393 = system: RXF 393
# SF-268 = system: SF-268
# SF-295 = system: SF-295
# SF-539 = system: SF-539
# SK-MEL-28 = system: SK-MEL-28
# SK-MEL-2 = system: SK-MEL-2
# SK-MEL-5 = system: SK-MEL-5
# SK-OV-3 = system: SK-OV-3
# SN12C = system: SN12C
# SNB-19 = system: SNB-19
# SNB-75 = system: SNB-75
# SR = system: SR
# SW-620 = system: SW-620
# T47D = system: T47D
# TK-10 = system: TK-10
# U-251 = system: U-251
# UACC-257 = system: UACC-257
# UACC-62 = system: UACC-62
# UO-31 = system: UO-31
# Malme-3M = system: Malme-3M
structure (smiles),measurement,setting,value
COC(=O)c1cnc(Cl)c([N+](=O)[O-])c1,GI50,786-0,3.57 µM (inactive)
same,GI50,A498,21.4 µM (inactive)
same,GI50,A549,20.6 µM (inactive)
same,GI50,ACHN,12.6 µM (inactive)
same,GI50,BT-549,17.9 µM (inactive)
same,GI50,CAKI-1,11.2 µM (inactive)
same,GI50,CCRF-CEM,2.11 µM (inactive)
same,GI50,COLO 205,3.54 µM (inactive)
same,GI50,DU-145,9.57 µM (inactive)
same,GI50,EKVX,1.8 µM (inactive)
same,GI50,HCC 2998,8.34 µM (inactive)
same,GI50,HCT-116,2.77 µM (inactive)
same,GI50,HCT-15,2 µM
same,GI50,HL-60,2.42 µM (inactive)
same,GI50,HOP-62,19.1 µM (inactive)
same,GI50,HOP-92,2.17 µM (inactive)
same,GI50,HT-29,14.3 µM (inactive)
same,GI50,Hs-578T,22.4 µM (inactive)
same,GI50,IGROV-1,2.79 µM (inactive)
same,GI50,K562,2.44 µM (inactive)
same,GI50,KM12,17.4 µM (inactive)
same,GI50,LOX IMVI,1.93 µM (inactive)
same,GI50,M14,14 µM (inactive)
same,GI50,MCF7,2.12 µM (inactive)
same,GI50,MDA-MB-231,16.3 µM (inactive)
same,GI50,MDA-MB-435,6.22 µM (inactive)
same,GI50,MDA-N,7.6 µM (inactive)
same,GI50,MOLT-4,2.42 µM (inactive)
same,GI50,NCI-H226,16.9 µM (inactive)
same,GI50,NCI-H23,17.3 µM (inactive)
same,GI50,NCI-H460,14.7 µM (inactive)
same,GI50,NCI-H522,1.64 µM (inactive)
same,GI50,NCI/ADR-RES,22.4 µM (inactive)
same,GI50,OVCAR-3,14.8 µM (inactive)
same,GI50,OVCAR-4,21.1 µM (inactive)
same,GI50,OVCAR-5,17.7 µM (inactive)
same,GI50,OVCAR-8,2.03 µM (inactive)
same,GI50,PC-3,10.7 µM (inactive)
same,GI50,RPMI-8226,2.52 µM (inactive)
same,GI50,RXF 393,12 µM (inactive)
same,GI50,SF-268,2.64 µM (inactive)
same,GI50,SF-295,19 µM (inactive)
same,GI50,SF-539,16.6 µM (inactive)
same,GI50,SK-MEL-28,17.1 µM (inactive)
same,GI50,SK-MEL-2,16.1 µM (inactive)
same,GI50,SK-MEL-5,14.1 µM (inactive)
same,GI50,SK-OV-3,19.3 µM (inactive)
same,GI50,SN12C,12.9 µM (inactive)
same,GI50,SNB-19,18.5 µM (inactive)
same,GI50,SNB-75,20.4 µM (inactive)
same,GI50,SR,1.9 µM (inactive)
same,GI50,SW-620,2.03 µM (inactive)
same,GI50,T47D,2.09 µM (inactive)
same,GI50,TK-10,16.3 µM (inactive)
same,GI50,U-251,2.16 µM (inactive)
same,GI50,UACC-257,7.41 µM (inactive)
same,GI50,UACC-62,16.8 µM (inactive)
same,GI50,UO-31,1.96 µM (inactive)
CC(=O)O[C@H]1CC[C@H]2[C@@H]3CCC4=C(C(=O)C=CC4(C)OC(C)=O)[C@H]3CC[C@]12C (some centres undefined),GI50,786-0,86.7 µM (inactive)
same,GI50,A498,> 100 µM (inactive)
same,GI50,A549,90.2 µM (inactive)
same,GI50,ACHN,54 µM (inactive)
same,GI50,BT-549,26.2 µM (inactive)
same,GI50,CAKI-1,> 100 µM (inactive)
same,GI50,CCRF-CEM,31.6 µM (inactive)
same,GI50,DU-145,> 100 µM (inactive)
same,GI50,EKVX,> 100 µM (inactive)
same,GI50,HCC 2998,38.3 µM (inactive)
same,GI50,HCT-116,33.2 µM (inactive)
same,GI50,HCT-15,64.3 µM
same,GI50,HL-60,27.3 µM (inactive)
same,GI50,HOP-62,> 100 µM (inactive)
same,GI50,HOP-92,63.2 µM (inactive)
same,GI50,HT-29,46.6 µM (inactive)
same,GI50,Hs-578T,> 100 µM (inactive)
same,GI50,IGROV-1,> 100 µM (inactive)
same,GI50,K562,33.1 µM (inactive)
same,GI50,KM12,29.1 µM (inactive)
same,GI50,LOX IMVI,38.1 µM (inactive)
same,GI50,M14,46.8 µM (inactive)
same,GI50,MCF7,26.4 µM (inactive)
same,GI50,MDA-MB-231,41 µM (inactive)
same,GI50,MDA-MB-435,49.4 µM (inactive)
same,GI50,MDA-N,34.6 µM (inactive)
same,GI50,MOLT-4,33.9 µM (inactive)
same,GI50,Malme-3M,> 100 µM (inactive)
same,GI50,NCI-H226,> 100 µM (inactive)
same,GI50,NCI-H23,35.8 µM (inactive)
same,GI50,NCI-H460,42.3 µM (inactive)
same,GI50,NCI-H522,45.8 µM (inactive)
same,GI50,NCI/ADR-RES,43.7 µM (inactive)
same,GI50,OVCAR-3,47.6 µM (inactive)
same,GI50,OVCAR-4,> 100 µM (inactive)
same,GI50,OVCAR-5,> 100 µM (inactive)
same,GI50,OVCAR-8,39.5 µM (inactive)
same,GI50,PC-3,48 µM (inactive)
same,GI50,RPMI-8226,38.3 µM (inactive)
same,GI50,RXF 393,32.1 µM (inactive)
same,GI50,SF-268,83.4 µM (inactive)
same,GI50,SF-295,98.4 µM (inactive)
same,GI50,SF-539,43.6 µM (inactive)
same,GI50,SK-MEL-28,> 100 µM (inactive)
same,GI50,SK-MEL-5,47.9 µM (inactive)
same,GI50,SN12C,41.5 µM (inactive)
same,GI50,SNB-19,> 100 µM (inactive)
same,GI50,SNB-75,45 µM (inactive)
same,GI50,SR,47.3 µM (inactive)
same,GI50,SW-620,35.8 µM (inactive)
same,GI50,T47D,> 100 µM (inactive)
same,GI50,TK-10,> 100 µM (inactive)
same,GI50,U-251,82.6 µM (inactive)
same,GI50,UACC-257,> 100 µM (inactive)
same,GI50,UACC-62,23.1 µM (inactive)
same,GI50,UO-31,55.3 µM (inactive)
C=C1N(S(=O)(=O)c2ccc(C)cc2)C(=O)OCC12CCCC2,GI50,786-0,> 100 µM (inactive)
same,GI50,A498,> 100 µM (inactive)
same,GI50,A549,> 100 µM (inactive)
same,GI50,ACHN,> 100 µM (inactive)
same,GI50,BT-549,> 100 µM (inactive)
same,GI50,CAKI-1,94.4 µM (inactive)
same,GI50,CCRF-CEM,65.5 µM (inactive)
same,GI50,COLO 205,72.8 µM (inactive)
same,GI50,DU-145,> 100 µM (inactive)
same,GI50,EKVX,55 µM (inactive)
same,GI50,HCC 2998,> 100 µM (inactive)
same,GI50,HCT-116,55.3 µM (inactive)
same,GI50,HCT-15,94 µM
same,GI50,HL-60,40.3 µM (inactive)
same,GI50,HOP-92,> 100 µM (inactive)
same,GI50,HT-29,54.7 µM (inactive)
same,GI50,Hs-578T,32.5 µM (inactive)
same,GI50,IGROV-1,31.3 µM (inactive)
same,GI50,K562,94.2 µM (inactive)
same,GI50,KM12,> 100 µM (inactive)
same,GI50,LOX IMVI,> 100 µM (inactive)
same,GI50,M14,> 100 µM (inactive)
same,GI50,MCF7,> 100 µM (inactive)
same,GI50,MDA-MB-231,> 100 µM (inactive)
same,GI50,MDA-MB-435,> 100 µM (inactive)
same,GI50,MDA-N,> 100 µM (inactive)
same,GI50,MOLT-4,77.4 µM (inactive)
same,GI50,Malme-3M,> 100 µM (inactive)
same,GI50,NCI-H226,> 100 µM (inactive)
same,GI50,NCI-H23,59.3 µM (inactive)
same,GI50,NCI-H460,96.4 µM (inactive)
same,GI50,NCI-H522,> 100 µM (inactive)
same,GI50,NCI/ADR-RES,81.7 µM (inactive)
same,GI50,OVCAR-3,52.4 µM (inactive)
same,GI50,OVCAR-4,72.6 µM (inactive)
same,GI50,OVCAR-5,> 100 µM (inactive)
same,GI50,OVCAR-8,> 100 µM (inactive)
same,GI50,PC-3,34.6 µM (inactive)
same,GI50,RPMI-8226,> 100 µM (inactive)
same,GI50,RXF 393,> 100 µM (inactive)
same,GI50,SF-295,> 100 µM (inactive)
same,GI50,SF-539,> 100 µM (inactive)
same,GI50,SK-MEL-28,> 100 µM (inactive)
same,GI50,SK-MEL-5,25.4 µM (inactive)
same,GI50,SK-OV-3,41.4 µM (inactive)
same,GI50,SNB-19,> 100 µM (inactive)
same,GI50,SNB-75,14.1 µM (inactive)
same,GI50,SR,45.7 µM (inactive)
same,GI50,SW-620,> 100 µM (inactive)
same,GI50,T47D,27.2 µM (inactive)
same,GI50,TK-10,> 100 µM (inactive)
same,GI50,U-251,76 µM (inactive)
same,GI50,UACC-257,80.4 µM (inactive)
same,GI50,UACC-62,34.6 µM (inactive)
same,GI50,UO-31,84.3 µM (inactive)
